From patent publication US8110217B2, “Sphingomyelin liposomes for the treatment of hyperactive bladder disorders” (priority 2001, dated 2012) come the findings set out here.

The assay concerns hyperactive bladder (PS/KCl). Nature of the assay: Continuous CMG, hyperactive bladder induced by PS/KCl (Examples 5-6). The format is in vivo, female Sprague-Dawley rats. The following applies: for Amplitude / Compliance / ICI / PT: N=6. How it is done: This was followed by instillation of liposomes (LP) in saline (in the case of the former) or LP/KCl.
Intravesical bladder pressure was recorded via a transurethral catheter in adult female Sprague-Dawley rats anesthetized with urethane (1.2 g/kg) administered by subcutaneous injection (sc). Some animals were pretreated with capsaicin (125 mg/kg, sc) four days prior to the experiments. […] Parameters measured included intercontraction interval (ICI), amplitude of bladder contractions, compliance and micturition pressure threshold (PT).
Animal Preparation. Thirty-four female Sprague-Dawley rats (250-300 g) were used in this study. Animals were anesthetized with urethane (1.2 g/kg, sc). Body temperature was maintained in the physiological range using a heating lamp.
Cystometrogram (CMG). A transurethral bladder catheter (PE-50) was connected via a three-way stopcock to a pressure transducer and to a syringe pump. This was used to record intravesical pressure and to infuse solutions into the bladder. A control CMG was performed by slowly filling the bladder with saline (0.04 ml/min) to elicit repetitive voiding. The parameters recorded were amplitude, PT, compliance, and ICI of reflex bladder contractions. Measurements in each animal represented the average of 3 to 5 bladder contractions.
Induction of a Hyperactive Bladder. […] L. Cheng et al., 1993, Am. J. Physiol. 265:R132-138). The experimental design is illustrated in FIG. 7. The KCl concentration used was within the range of concentrations present in normal rat urine (M. Ohnishi et al., 2001, Toxicol. Appl. Pharmacol. 174:122-129).
Preparation of Liposomes (LP). LP were prepared as described by Kirby and Gregoriadis (C. J. Kirby and G. Gregoriadia, 1984, “A simple procedure for preparing liposomes capable of high encapsulation efficiency under mild conditions,” Liposome Technology; G. Gregnoriadis, Ed., C.R.C. Press, Inc., Boca Raton, Fla., Vol. 1, p. 20). Briefly, LP were constructed as a 2:1 molar ratio of L-α-phosphatidylcholine and cholesterol (Sigma Chemical Co., St. Louis, Mo.) to a final lipid concentration of 2 mg/ml in saline. Lipids in chloroform were dried down together in the proper ratio under nitrogen. The residues were reconstituted as LP in saline or 500 mM KCl by intense sonication.
Statistical Analyis. Statistical analyses were performed using Student's t test for paired or unpaired data, where applicable. A p-value less than 0.05 was considered significant. All data are expressed in Example 2 (below) as means±S.E.

[1] abbreviates: Table 1B series: saline, KCl 500 mM 1 h, PS/KCl 1 h, LP/KCl 2 h.
Setting [2] is: Table 1C series: saline, KCl 500 mM 1 h, PS/KCl 1 h.
Setting [3] is: Table 1C: KCl infusion 2 h after PS/KCl.
Setting [4] is: infusion after PS/KCl, vs pretreatment.

Entries after “also recorded” stand apart in the source; their conditions may differ.

`[Cl-].[K+]` [KCl]: the “PT change” value (PS/KCl series, vs pretreatment) is recorded as “significantly increased”. Under setting [1], this molecule gave an Amplitude of 28.8 ± 1.2 cm H2O, a Compliance of 0.284±0.028 ml/cm H2O, an ICI of 15.8 ± 1.4 min and a PT of 8.2 ± 0.9 cm H2O. Moreover, under setting [2], the Amplitude is reported as 28.8 ± 2.2 cm H2O, the Compliance was 0.226±0.050 ml/cm H2O, the ICI was determined as 16.3 ± 1.5 min and the PT amounted to 6.8 ± 0.6 cm H2O. Under setting [3], this molecule yielded an Amplitude of 33.0 ± 2.3 cm H2O, a Compliance of 0.043±0.014 ml/cm H2O, an ICI of 2.9 ± 0.5 min and a PT of 11.8 ± 1.6 cm H2O. Besides, the “change of ICI / CMGs” value (infused alone: PS 10 mg/ml or KCl 500 mM) is given as “not changed; also recorded: did not significantly change the CMGs”. Under setting [4], the “Compliance change” value is “further reduced” and the “ICI change” value is listed as “not significantly changed; also recorded: did not alter the ICI for periods as long as 120 min”.
